# Experimental data as given in patent US20110166107A1, “METHODS AND KITS FOR DETECTING RISK FACTORS FOR DEVELOPMENT OF JAW OSTEONECROSIS AND METHODS OF TREATMENT THEREOF” (UNIVERSITY OF FLORIDA RESEARCH FOUNDATION INC., priority 2008, published 2011).
# Experiment: Chart review of BONJ incidence in patients treated with bisphosphonates (UF / VAMC)
# Type: in vivo, human
# Conditions: outpatient bone marrow transplant clinic, all patients had myeloma; pamidronate only (total incidence 13%)
# Text: Medical and dental charts at the University of Florida (UF) and the associated Veterans Administration Medical Center (VAMC) were reviewed. […] There were 21 males. […] Fourteen patients had modest increases in their serum creatinine concentrations. The average number of previous chemo/radiotherapy regimens was 3.5. Nine patients had Thalidomide, 5 had Bortizomib. Primary disease status was as follows: 12 patients in clinical remission, 5 with stable disease and 10 with progressive disease. Eight patients received statin therapy and 6 had diabetes mellitus. The median length of treatment with BP before the diagnosis of BONJ was 28 months. BONJ involved the mandible in 21 patients, maxilla in 4 and both in 2 patients. The most frequent presentation was pain, swelling, and exposed bone (FIG. 1). […] The BONJ incidence differed among the 3 centers where these patients were treated. […] The incidence in the VAMC was 4.2% while the incidence in the Cancer Center clinic at UF was 1.7%. In the latter two groups, patients had mostly solid tumors. The results described herein are consistent with the reports of increased incidence of BONJ with greater duration of therapy and that myeloma patients are more likely to develop the complication than solid tumor patients.
smiles,measurement,value
NCCC(O)(P(=O)(O)O)P(=O)(O)O [pamidronate],BONJ incidence,4%
